Patent publication US12390458B2, “Therapeutic combination of quinoline derivative and antibody” (CHIA TAI TIANQING PHARMACEUTICAL GROUP CO., LTD., priority 2018, dated 2025)
Counter-ions that a name gives are not always drawn.

Legend:
[1] = Open, multicenter phase Ib/II clinical study, first-line 14C12H1L1 plus anlotinib hydrochloride: adverse events; format: in vivo, human; settings: patients on combined 14C12H1L1 + anlotinib, events related to the labelled treatment; for TRAE (incidence of treatment-related adverse events) / ≥ grade 3 TRAEs: by Jun. 27, 2019
From the text: This example discloses the results of an early open, multicenter phase Ib/II clinical study on first-line treatment of unresectable hepatocellular carcinoma with combined use of 14C12H1L1 and anlotinib hydrochloride.
This study is an open, multicenter phase Ib/II clinical study aimed at evaluating the effectiveness, i.e. safety, of 14C12H1L1 in combination with anlotinib in the first line treatment of unresectable hepatocellular carcinoma.
Secondary endpoints: (1) disease control rate (DCR), duration of response (DOR), time to response (TTR), progression-free survival (PFS), and treatment past progression (TPP) being evaluated by investigators according to RECISIT v1.1; (2) overall survival (OS); (3) safety evaluation: incidence and severity of AEs, clinically significant abnormal laboratory test results.
14C12H1L1 injection, 100 mg/10 mL solution; manufacturer: Akeso Tiancheng Guangdong Co., Ltd.; stored at 2-8° C. in the absence of light.
Anlotinib hydrochloride capsules (FOCUS V®), 8 mg/capsule; manufacturer: Chia Tai Tianging Pharmaceutical Group Co., Ltd.; sealed and be away from light.
14C12H1L1 in combination with anlotinib, wherein the 14C12H1L1: 200 mg, Q3W intravenous injection; anlotinib: taken once a day, 8 mg each time, 14 days of treatment plus 7 days of interruption, i.e., a treatment cycle of 21 days.

[2] = tested on: mouse liver cancer H22 subcutaneous xenograft tumor; assay: Efficacy on mouse liver cancer H22 subcutaneous xenograft tumor; format: in vivo; settings: for Mean tumor volume (mm^3) D0: D0, day of first administration (baseline), KM mice, 10 per group; for % T/C D17 / Tumor growth inhibition (%): anlotinib hydrochloride 1 mg/kg i.g. QD×17, lenvatinib mesylate 5 mg/kg i.g. QD×17, mPD-1 1 mg/kg IP 5 times; for % T/C D17 / Tumor growth inhibition (%) / Mean tumor volume (mm^3) D17: D17; for Mean tumor volume (mm^3) D17: anlotinib hydrochloride 1 mg/kg i.g. QD×17, lenvatinib mesylate 5 mg/kg i.g. QD×17, mPD-1 1 mg/kg IP D0, D3, D7, D10, D14; for Complete regression / Partial regression: number of animals out of 10 per group
Method: The H22 cells were cultured in a 10-cm petri dish with RPMI 1640 medium containing 10% fetal bovine serum, penicillin and streptomycin in an incubator at 37° C. and 5% CO2. Subculturing was carried out twice a week and cells were collected, counted and inoculated when the cells grew exponentially.
KM mice, 6-7 weeks old, female, purchased from Shanghai JSJ Laboratory Animal Co. Ltd. Production license No.: SCXK (Shanghai) 2013-0006; animal certification No.: 311620400013790. Breeding environment: SPF grade.
The experimental index is to study the influence of the drug on the tumor growth, and the specific index is T/C (%) or tumor growth inhibition TGI (%).
Tumor diameters were measured twice weekly with a vernier caliper and tumor volume (V) was calculated according to the following formula: V=½×a×b^2, where a and b represent length and width, respectively.
T/C (%)=(T−T0)/(C−C0)×100, where T and C are the tumor volumes of animals at the end of the experiment in the test group and control group, respectively; T0 and C0 are the tumor volumes of animals at the beginning of the experiment in the test group and control group, respectively. Tumor growth inhibition (TGI)(%)=100−T/C(%). Tumor growth inhibition (TGI)(%)=100−(T−T0)/T0×100 when tumor started to regress.
If the volume of tumor shrinks compared with its initial volume, i.e., T<T0 […], it is defined as partial regression (PR) of tumor; if the tumor completely disappears, it is defined as complete regression (CR) of tumor.
(§1) H22 cells were inoculated to each mouse subcutaneously, and when the tumor grew to 100-200 mm^3, the mice were randomly grouped and intragastrically (i.g.) administered or intraperitoneal (IP) injected with drug; the mice in the solvent group were intragastrically administrated with distilled water with the same volume; the administration volume was 0.1 mL/10 g body weight; specific administration dosages and regimes are shown in Table 4.
After the experiment was completed, or when the tumor volume of the animals reached the euthanization endpoint of 1500 mm^3, the animals were put to death through carbon dioxide inhalation, followed by dissecting to take the tumor tissue and weighing and photographing.

[3] = Body weight and tolerance of H22 tumor-bearing mice; format: in vivo
Method: The use and welfare of the laboratory animals were carried out in compliance with the provisions of Association for Assessment and Accreditation of Laboratory Animal Care, International (AAALAC). The health and death of the animals are monitored daily and routine examinations include observation of the effects of the test substance or drug on the daily performance of the animals, such as behavioral activities, weight changes, appearance, etc.
as §1

[4] = tested on: advanced NSCLC; settings: phase III; Chinese patients; cited from earlier work
[5] = phase II trial; cited from earlier work

| Molecule | TRAE (incidence of treatment-related adverse events) [1] | ≥ grade 3 TRAEs [1] | SAE [1] | TRAEs resulting in the withdrawal [1] | Mean tumor volume (mm^3) D0 [2] | % T/C D17 [2] | Tumor growth inhibition (%) [2] | Mean tumor volume (mm^3) D17 [2] | Complete regression ([2]; same doses) | Partial regression ([2]; same doses) | body weight / tolerance of tumor-bearing mice ([3]; D0-D17, anlotinib hydrochloride 1 mg/kg, lenvatinib mesylate 5 mg/kg, mPD-1 1 mg/kg) | overall survival and progression-free survival [4] | tolerability [4] | overall survival [5] | progression-free survival [5] | tumor growth / efficacy in words ([2]; D0-D17, same doses, comparison between groups) | body weight / tolerance of tumor-bearing mice ([3]; mouse, in vivo) |
| --- | --- | --- | --- | --- | --- | --- | --- | --- | --- | --- | --- | --- | --- | --- | --- | --- | --- |
| 14C12H1L1: anti-PD-1 monoclonal antibody (Akeso Bioscience); CN106977602A; CDRs SEQ ID NO: 25-30 | 62.5% | 6.25% | 6.25% | 6.25% | – | – | – | – | – | – | – | – | – | – | – | – | – |
| COc1cc2c(Oc3ccc4[nH]c(C)cc4c3F)ccnc2cc1OCC1(N)CC1 [Anlotinib hydrochloride, 1-[[[4-(4-fluoro-2-methyl-1H-indol-5-yl)oxy-6-methoxyquinolin-7-yl]oxy]methyl]cyclopropylamine hydrochloride] | – | – | – | – | 131.4 mm^3 | 38.3% | 61.7% | 975.3 mm^3 | 0 | 0 | no symptom like obvious weight loss | – | – | – | – | – | – |
| COc1cc2c(Oc3ccc4[nH]c(C)cc4c3F)ccnc2cc1OCC1(N)CC1 [Anlotinib, 1-[[[4-(4-fluoro-2-methyl-1H-indol-5-yl)oxy-6-methoxyquinolin-7-yl]oxy]methyl]cyclopropylamine] | 75% | 12.5% | 12.5% | 12.5% | – | – | – | – | – | – | – | extended overall survival and progression-free survival | well tolerated | potential benefit for overall survival | improve progression-free survival | – | – |
| COc1cc2nccc(Oc3ccc(NC(=O)NC4CC4)c(Cl)c3)c2cc1C(N)=O [Lenvatinib mesylate] | – | – | – | – | 127.6 mm^3 | 21.0% | 79% | 590.8 mm^3 | 0 | 0 | – | – | – | – | – | obviously inhibits the growth | no symptom like obvious weight loss |
